Data from patent US9771341B2, “Piperazine carbamates and methods of making and using same” (Abide Therapeutics, Inc., priority 2015, dated 2017).

Key:
[1] = biological target: T1, MAGL (Mus musculus, UniProt O35678); assay: In vitro competitive activity-based protein profiling (mouse), MAGL; format: biochemical; conditions: for inhibition at 1 µM: mouse proteome, in vitro, read-out: % Inhibition at 1 μM MAGL; for IC50: mouse brain membrane fraction or cell lysates, 30 min preincubation at 37° C, FP-Rh probe
T1 construct: Proteomes (mouse brain membrane fraction or cell lysates); from tissue; host or cells: mouse brain membrane fraction (or unspecified cell lysates)
T1 sequence (O35678 1-303): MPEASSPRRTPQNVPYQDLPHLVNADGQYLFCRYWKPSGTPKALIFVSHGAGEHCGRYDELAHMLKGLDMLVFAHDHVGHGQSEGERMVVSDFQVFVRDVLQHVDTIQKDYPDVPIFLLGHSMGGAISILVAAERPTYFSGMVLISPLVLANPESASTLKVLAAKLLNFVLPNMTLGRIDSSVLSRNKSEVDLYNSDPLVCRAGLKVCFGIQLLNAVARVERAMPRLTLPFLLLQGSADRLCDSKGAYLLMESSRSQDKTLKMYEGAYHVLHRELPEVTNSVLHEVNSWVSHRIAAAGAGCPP
Description: (§1) In Vitro Competitive Activity-Based Protein Profiling (Mouse).
(§2) Proteomes (mouse brain membrane fraction or cell lysates) (50 μL, 1.0 mg/mL total protein concentration) were preincubated with varying concentrations of inhibitors at 37° C. After 30 min, FP-Rh (1.0 μL, 50 μM in DMSO) was added and the mixture was incubated for another 30 min at 37° C. Reactions were quenched with SDS loading buffer (50 μL-4×) and run on SDS-PAGE.

[2] = biological target: T2, FAAH (Mus musculus, UniProt O08914); assay: In vitro competitive activity-based protein profiling (mouse), FAAH; format: biochemical; conditions: for inhibition at 1 µM: mouse proteome, in vitro; for IC50: mouse brain membrane fraction or cell lysates, 30 min preincubation at 37° C, FP-Rh probe
T2 construct: Proteomes (mouse brain membrane fraction or cell lysates); from tissue; host or cells: mouse brain membrane fraction (or unspecified cell lysates)
T2 sequence (O08914 1-579): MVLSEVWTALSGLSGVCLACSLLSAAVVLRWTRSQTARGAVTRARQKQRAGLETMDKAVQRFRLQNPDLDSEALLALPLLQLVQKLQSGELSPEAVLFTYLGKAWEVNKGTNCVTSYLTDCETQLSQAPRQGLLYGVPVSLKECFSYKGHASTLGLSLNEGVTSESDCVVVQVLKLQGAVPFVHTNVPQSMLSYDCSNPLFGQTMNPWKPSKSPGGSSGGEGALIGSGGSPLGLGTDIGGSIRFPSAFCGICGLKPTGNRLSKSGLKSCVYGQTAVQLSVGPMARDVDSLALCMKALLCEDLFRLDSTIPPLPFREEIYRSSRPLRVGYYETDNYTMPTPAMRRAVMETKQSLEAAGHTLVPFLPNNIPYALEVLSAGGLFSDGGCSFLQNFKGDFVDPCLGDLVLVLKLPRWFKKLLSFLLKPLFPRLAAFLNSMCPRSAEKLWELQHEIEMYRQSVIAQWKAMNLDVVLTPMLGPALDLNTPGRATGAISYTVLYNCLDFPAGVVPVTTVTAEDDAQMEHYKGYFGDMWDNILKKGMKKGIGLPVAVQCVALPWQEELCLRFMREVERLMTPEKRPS
In short: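 Mouse brain membrane fraction or cell lysates (1.0 mg/mL protein) preincubated with inhibitors 30 min at 37° C, then FP-Rh probe 30 min at 37° C. SDS-PAGE fluorescence band intensity gave FAAH activity.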

[3] = biological target: T3, ABHD6 (Mus musculus, UniProt Q8R2Y0); assay: In vitro competitive activity-based protein profiling (mouse), ABHD6; format: biochemical; conditions: for inhibition at 1 µM: mouse proteome, in vitro, read-out: % Inhibition at 1 μM ABHD6; for IC50: mouse brain membrane fraction or cell lysates, 30 min preincubation at 37° C, FP-Rh probe
T3 construct: Proteomes (mouse brain membrane fraction or cell lysates); from tissue; host or cells: mouse brain membrane fraction (or unspecified cell lysates)
T3 sequence (Q8R2Y0 1-336): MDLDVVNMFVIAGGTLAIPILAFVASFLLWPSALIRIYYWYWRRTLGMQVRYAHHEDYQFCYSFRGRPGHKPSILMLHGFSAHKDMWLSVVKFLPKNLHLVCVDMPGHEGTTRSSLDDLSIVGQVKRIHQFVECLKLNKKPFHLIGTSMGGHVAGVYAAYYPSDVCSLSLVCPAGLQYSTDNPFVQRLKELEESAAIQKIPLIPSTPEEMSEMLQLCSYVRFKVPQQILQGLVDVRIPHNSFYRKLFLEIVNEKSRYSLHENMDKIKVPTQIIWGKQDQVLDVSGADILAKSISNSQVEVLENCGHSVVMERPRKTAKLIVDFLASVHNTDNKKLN
Description: as §1, §2

[4] = biological target: T1, MAGL; assay: Mouse brain proteomes from inhibitor treated mice, MAGL; format: in vivo; conditions: 5 mg/kg oral gavage, C57Bl/6J mice, brain proteome 4 h after administration
Description: (§3) Preparation of Mouse Brain Proteomes from Inhibitor Treated Mice.
(§4) Inhibitors were administered to wild-type C57Bl/6J by oral gavage in a vehicle of polyethylene glycol.

[5] = biological target: T2, FAAH; assay: Mouse brain proteomes from inhibitor treated mice, FAAH; format: in vivo; conditions: 5 mg/kg oral gavage, C57Bl/6J mice, brain proteome 4 h after administration
Description: as §3
Inhibitors were administered to wild-type C57Bl/6J by oral gavage in a vehicle of polyethylene glycol. Each animal was sacrificed 4 h following administration and brain proteomes were prepared and analyzed according to previously established methods (See Niphakis, M. J., et al. (2011) ACS Chem. Neurosci. and Long, J. Z., et al. Nat. Chem. Biol. 5:37-44)

[6] = biological target: T3, ABHD6; assay: Mouse brain proteomes from inhibitor treated mice, ABHD6; format: in vivo; conditions: 5 mg/kg oral gavage, C57Bl/6J mice, brain proteome 4 h after administration
Description: as §3, §4

| Structure (SMILES) | inhibition at 1 µM [1] | IC50 [1] | inhibition at 1 µM [2] | IC50 [2] | inhibition at 1 µM [3] | IC50 [3] | inhibition at 5 mg/kg [4] | inhibition at 5 mg/kg [5] | inhibition at 5 mg/kg [6] |
| --- | --- | --- | --- | --- | --- | --- | --- | --- | --- |
| O=C(O)C1CN(c2cc(C(F)(F)F)ccc2CN2CCN(C(=O)OC(C(F)(F)F)C(F)(F)F)CC2)CCO1 (stereo not drawn) [Example 75, 4-(2-((4-(((1,1,1,3,3,3-hexafluoropropan-2-yl)oxy)carbonyl)piperazin-1-yl)methyl)-5-(trifluoromethyl)phenyl)morpholine-2-carboxylic acid] | > 75% | < 100 nM | < 25% | > 1000 nM | < 25% | > 1000 nM | < 25% | < 25% | < 25% |
| O=C(OC(C(F)(F)F)C(F)(F)F)N1CCN(Cc2ccc(Cl)cc2N2CC[C@H](N3CCCCC3=O)C2)CC1 [Example 44, 1,1,1,3,3,3-hexafluoropropan-2-yl (S)-4-(4-chloro-2-(3-(2-oxopiperidin-1-yl)pyrrolidin-1-yl)benzyl)piperazine-1-carboxylate] | > 75% | < 100 nM | < 25% | > 1000 nM | < 25% | > 1000 nM | < 25% | < 25% | < 25% |
| NC(=O)C1CCN(c2cc(Cl)ccc2CN2CCN(C(=O)OC(C(F)(F)F)C(F)(F)F)CC2)CC1 [Example 33, 1,1,1,3,3,3-hexafluoropropan-2-yl 4-(2-(4-carbamoylpiperidin-1-yl)-4-chlorobenzyl)piperazine-1-carboxylate] | > 75% | < 100 nM | < 25% | > 1000 nM | > 75% | 100 to 1000 nM | > 75% | < 25% | > 75% |
| Cc1cccc(CN2CCN(C(=O)OC(C(F)(F)F)C(F)(F)F)CC2)c1N1CC[C@H](CF)C1 [Example 56, 1,1,1,3,3,3-hexafluoropropan-2-yl (S)-4-(2-(3-(fluoromethyl)pyrrolidin-1-yl)-3-methylbenzyl)piperazine-1-carboxylate] | > 75% | < 100 nM | < 25% | > 1000 nM | < 25% | > 1000 nM | > 75% | < 25% | < 25% |
| COc1c(CN2CCN(C(=O)OC(C(F)(F)F)C(F)(F)F)CC2)cccc1CN1CCC(F)(F)CC1 [Example 16, 1,1,1,3,3,3-hexafluoropropan-2-yl 4-(3-((4,4-difluoropiperidin-1-yl)methyl)-2-methoxybenzyl)piperazine-1-carboxylate] | > 75% | < 100 nM | < 25% | > 1000 nM | > 75% | 100 to 1000 nM | > 75% | < 25% | 25 to 75% |
| O=C(OC(C(F)(F)F)C(F)(F)F)N1CCN(Cc2ccc(CN3CCOCC3)cc2OC(F)(F)F)CC1 [Example 23, 1,1,1,3,3,3-hexafluoropropan-2-yl 4-(4-(morpholinomethyl)-2-(trifluoromethoxy)benzyl)piperazine-1-carboxylate] | > 75% | < 100 nM | < 25% | > 1000 nM | < 25% | > 1000 nM | > 75% | < 25% | < 25% |
